Among the data in ChEMBL document CHEMBL1127193, “High-purity porcine pancreatic lipase: novel effects in catalyzing hydrolysis of esters derived from bicyclo[3.2.0]hept-2-EN-6-OLS” (Bioorg Med Chem Lett, 1993) are k cat and kcat values, retold here.

In test [1] the target is T1, Pancreatic triacylglycerol lipase (Homo sapiens) (UniProt P16233).
T1 sequence (whole entry): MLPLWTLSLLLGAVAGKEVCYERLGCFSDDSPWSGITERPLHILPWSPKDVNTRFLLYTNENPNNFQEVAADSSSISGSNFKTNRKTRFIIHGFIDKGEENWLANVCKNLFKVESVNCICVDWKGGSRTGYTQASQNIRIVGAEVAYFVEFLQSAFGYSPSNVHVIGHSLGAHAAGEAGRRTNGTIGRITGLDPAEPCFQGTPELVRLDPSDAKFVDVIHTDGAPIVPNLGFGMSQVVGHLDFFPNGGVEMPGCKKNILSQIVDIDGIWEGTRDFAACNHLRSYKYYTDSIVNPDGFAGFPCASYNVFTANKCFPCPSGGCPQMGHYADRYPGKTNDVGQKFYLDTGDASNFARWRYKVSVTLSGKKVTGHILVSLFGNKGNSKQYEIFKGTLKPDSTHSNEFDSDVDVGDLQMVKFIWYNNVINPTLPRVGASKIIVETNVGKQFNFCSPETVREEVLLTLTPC
The experiment in a line: Tested for hydrolysis with 0.2 ug/mL of PPL (porcine pancreatic lipase) at the compound dose of 0.2 g. The settings on record: Sus scrofa; target entry is the homologue from another species.

Test [2] has as its target T1, Pancreatic triacylglycerol lipase (Homo sapiens). The test can be described thus: Tested for hydrolysis with 0.5 ug/mL of PPL (porcine pancreatic lipase), 1.5 ug/mL of colipase and 4 mM of sodium taurodeoxycholatet (NaTDC) at the compound dose of 0.2 g. The following applies: Sus scrofa; target entry is the homologue from another species.
The target is the same in test [3]. The test can be described thus: Tested for hydrolysis with 80 ug/mL of PPL (porcine pancreatic lipase) at the compound dose of 0.1 g. The settings on record: Sus scrofa; target entry is the homologue from another species.
The target is the same in test [4]. The settings on record: Sus scrofa.
Test [5] has as its target T2, Pancreatic triacylglycerol lipase (Homo sapiens, UniProt P16233).
T2 sequence (P16233 whole entry): T1 sequence (whole entry)
The experiment in a line: Tested for hydrolysis with 0.2 ug/mL of PPL (porcine pancreatic lipase) at a compound dose of 0.2 g. Set-up: species or system Sus scrofa. The following applies: target entry is the homologue from another species.

The target in test [6] is T1, Pancreatic triacylglycerol lipase (Homo sapiens). The following applies: Sus scrofa. The source holds these as a separate data set.
Test [7] has as its target T2, Pancreatic triacylglycerol lipase. The test can be described thus: Tested for hydrolysis with 0.2 ug/mL of PPL (porcine pancreatic lipase), 1.5 ug/mL of colipase and 4 mM sodium taurodeoxycholatet (NaTDC) at a compound concentration of 0.2 g. The following applies: target entry is the homologue from another species. Details: species or system Sus scrofa.
The target in test [8] is T1, Pancreatic triacylglycerol lipase (Homo sapiens). The experiment in a line: Tested for hydrolysis with 200 ug/mL of PPL (porcine pancreatic lipase) and sodium taurodeoxycholatet (NaTDC) at the compound dose of 0.2 g. The following applies: Sus scrofa; target entry is the homologue from another species.
The target is the same in test [9]. The experiment in a line: Tested for hydrolysis with 20 ug/mL of PPL (porcine pancreatic lipase) and sodium taurodeoxycholatet (NaTDC) at the compound dose of 0.2 g. The settings on record: Sus scrofa; target entry is the homologue from another species.
For test [10] the target is unchanged. The test can be described thus: Tested for hydrolysis with 1.0 ug/mL of PPL (porcine pancreatic lipase) at the compound dose of 0.2 g. The settings on record: Sus scrofa; target entry is the homologue from another species.
Test [11] has the same target. The experiment in a line: Tested for hydrolysis with 1.0 ug/mL of PPL (porcine pancreatic lipase), 2.2 ug/mL of colipase and 4 mM of sodium taurodeoxycholatet (NaTDC) at the compound dose of 0.2 g. The following applies: Sus scrofa; target entry is the homologue from another species.

On to `CCCC(=O)O[C@@H]1C[C@@H]2C=CC[C@@H]21`, for which the k cat is 3870 s⁻¹ in test [1] and 3560 s⁻¹ in test [2].

In [3], `CC(=O)O[C@@H]1C[C@@H]2C=CC[C@@H]21` came in with a k cat below 9 s⁻¹.

Consider `CCCC(=O)OCC(COC(=O)CCC)OC(=O)CCC` [TRIBUTYRIN], for which the k cat in [4] was determined as 4900 s⁻¹; in [6], 5100 s⁻¹. Further, the values for the turnover number (kcat) in test [5] and in test [7] were 1100 s⁻¹ and below 1 s⁻¹, respectively.

Take `CCCC(=O)O[C@H]1C[C@@H]2C=CC[C@H]12`: the k cat in test [8] is below 5 s⁻¹; in [9], below 4 s⁻¹.

For the molecule `CCCC(=O)O[C@@H]1C[C@@H]2C=CC[C@@H]21.CCCC(=O)O[C@@H]1C[C@H]2C=CC[C@@H]21`, the k cat in [10] was 420 s⁻¹; in [11] it was 400 s⁻¹.
